“Also recorded” adds a separate entry of the source.
Assays:
[1] = test system: MCF7, HCT-116, HeLa and A549 cells; test: Annexin V/PI apoptosis analysis; assay type: cell-based; settings: for early apoptotic cell population (Annexin V+/PI-): 24 and 48 hours
Method: The cells were collected at 12, 24 and 48 hours after treatment with […] of HH32 and HH33 compounds. The detection of early and late apoptotic cell death was done using FITC Annexin V Apoptosis Detection Kit (Becton Dickenson, California, USA) according to the manufacturer's protocol. The data were analyzed by BD Accuri C6 flow cytometer (Becton Dickenson, New Jersey, USA).

HeLa = test: SRB cytotoxicity assay, HeLa; assay type: cell-based
Source text: (§1) Eight different cancer cell lines were acquired from the Radiobiology and Experimental Radio Oncology lab, University Medical Center, Hamburg University, Hamburg, Germany. MCF7, MDA-MB-231 (breast cancer), and A549 (lung cancer) cells were maintained in RPMI medium while HCT116 (colon cancer), HepG2 (liver cancer), U87, U373 (glioblastoma), and HeLa (cervical cancer) were maintained in DMEM supplemented with 10% FBS and 1% penicillin/streptomycin (Sigma Aldrich, Missouri, USA). Normal human fibroblast (F180) cells were maintained in DMEM supplemented with 15% FBS. Normal human mammary epithelial cell line (HME1) were maintained in DMEM/F-12 medium supplemented with 10% FBS. All incubations were done at 37° C. in a humidified atmosphere of 5% CO2. All cell lines were authenticated by short tandem repeat (STR) profiling. The CDK4 knockout cells (provided by Dr. Samrein Ahmed, University of Sharjah, United Arab Emirates) were generated by CRISPR-CAS9 technology and were maintained in DMEM supplemented with 10% FBS.
(§2) The cytotoxic effects of HH32 and HH33 compounds were evaluated at various concentrations ranging from 0.0001 to 100 μM by sulphrhodamine-B (SRB) assay as described previously. The anti-proliferative activity was expressed as growth inhibitory concentration (IC50) values, which were calculated by the sigmoidal dose-response curve fitting method using Graph pad prism 6 software (GraphPad Software, San Diego, CA, USA).

MCF7 = test: SRB cytotoxicity assay, MCF7; assay type: cell-based; settings: for IC50: MCF7, SRB, mean ± SEM
Source text: as §1, §2

MCF7 cells = test: Metabolic analysis by GC-MS; assay type: cell-based
Method: The release of different metabolites following HH32 and HH33 treatment on MCF7 cells was detected using Gas Chromatography-Mass Spectrometry (GC-MS) (Shimadzu, Kyoto, Japan) as was described previously. GC-MS analysis was performed using a QP2010 gas chromatography-mass spectrometer (GC-2010 coupled with a GC-MS QP-2010 Ultra) equipped with an auto-sampler (AOC-20i+s) from Shimadzu (Tokyo, Japan), using Rtx-5 ms column (30 m length×0.25 mm inner diameter x 0.25 μm film thickness; Restek, Bellefonte, PA, USA). Helium (99.9% purity) was used as the carrier gas with the column flow rate of 1 mL/min. Data collection and analysis were performed using MSD Enhanced Chemstation software (Shimadzu, Kyoto, Japan). GC total ion chromatograms (TIC) and fragmentation patterns of the compound were identified using the NIST/EPA/NIH Mass Spectral Library (NIST 14).
Preprocessing and data analysis were performed using an in-house R script. Only compounds registered in Human Metabolome Database (HMDB 4.0) were considered for further analysis. Compounds with more than 70% of missing values were considered unreliable and therefore excluded. Probabilistic Quotient Normalization was used to normalize data due to dilution effects in the extraction procedure. Missing metabolite measurements were imputed using the k-nearest neighbor algorithm with k—3. […] To account for multiple testing, a false discovery rate (FDR) of <15% was applied to reduce the identification of false positives. FDRs were calculated using the q conversion algorithm in multiple comparisons. Principal component analysis (PCA) was used to visualize the metabolomic data. Data were mean-centered and scaled to unit variance before PCA.

U373 = test: SRB cytotoxicity assay, U373; assay type: cell-based
Source text: as §1, §2

F-180 = test: SRB cytotoxicity assay, normal fibroblast F-180; assay type: cell-based, human; settings: F-180 normal fibroblast, mean ± SEM
Source text: as §1, §2

HepG2 = test: SRB cytotoxicity assay, HepG2; assay type: cell-based
Source text: as §1, §2

U87 = test: SRB cytotoxicity assay, U87; assay type: cell-based; settings: for IC50: U87, SRB, mean ± SEM
Source text: as §1, §2

HCT-116 = test: SRB cytotoxicity assay, HCT-116; assay type: cell-based
Source text: as §1, §2

[2] = test system: MCF7, HCT116, HeLa and A549 cells; test: Cell cycle analysis by flow cytometry, four cell lines; assay type: cell-based; settings: for G1 and S phases arrest: four cell lines
Method: The effect of the HH32 and HH33 compounds on the distribution of cell cycle at different time points (2, 4, 8, 24, 48, and 72 hours) was analyzed using flow cytometry. Briefly, the cells were harvested and fixed in 70% ethanol for 24 hours at −20° C. The fixed cells were treated with RNAase […] (Sigma Aldrich, Missouri, USA) and stained with propidium iodide […] (Sigma Aldrich, Missouri, USA). The data were acquired using BD Accuri C6 flow cytometer (Becton Dickenson, San Jose, CA, USA) and analysis was done using Flow Jo software (Tree Star, Inc, Ashland, OR, USA).

MDA-MB-231 = test: SRB cytotoxicity assay, MDA-MB-231; assay type: cell-based
Source text: as §1, §2

A549 = test: SRB cytotoxicity assay, A549; assay type: cell-based; settings: for IC50: A549, SRB, mean ± SEM
Source text: as §1, §2

Structure (SMILES)	late apoptotic/dead cells (Annexin V+/PI+) ([1]; HCT-116 cells)	early apoptotic cell population (Annexin V+/PI-) ([1]; four cell lines)	Selectivity index (HeLa; F180 versus HeLa)	Selectivity index (HeLa; HME1 versus HeLa)	Selectivity index (MCF7; F180 versus MCF7)	Selectivity index (MCF7; HME1 versus MCF7)	IC50 (MCF7)	Selectivity index (U373; F180 versus U373)	Selectivity index (U373; HME1 versus U373)	IC50 (F-180)	Selectivity index (HepG2; F180 versus HepG2)	Selectivity index (HepG2; HME1 versus HepG2)	Selectivity index (U87; F180 versus U87)	Selectivity index (U87; HME1 versus U87)	IC50 (U87)	Selectivity index (HCT-116; F180 versus HCT116)	Selectivity index (HCT-116; HME1 versus HCT116)	G1 and S phases arrest [2]	Selectivity index (MDA-MB-231; F180 versus MDA-MB-231)	Selectivity index (MDA-MB-231; HME1 versus MDA-MB-231)	further results
COC(=O)c1cc(NC2=NC(=O)C(=Cc3ccc(C)cc3)S2)ccc1OC(C)=O [HH32, Methyl 2-acetoxy-5-[(5-(4-methylbenzylidene)-4 (H)-oxo-1,3-thiazol-2-yl)-amino]benzoate]	elevated	no sign of early apoptosis induction	22.2	44.65	3.88	7.8	3.44 ± 0.32 µM	0.45	0.9	13.3 ± 0.38 µM	5.36	10.8	2.04	4.1	6.53 ± 0.09 µM	11.4	22.9	no signs	0.87	1.7	IC50 (HeLa; HeLa, SRB, mean ± SEM): 0.6 ± 0.47 µM; Guanosine levels (MCF7 cells; vs untreated cells): altered; IC50 (U373; U373, SRB, mean ± SEM): 29.38 ± 0.08 µM; IC50 (HepG2; HepG2, SRB, mean ± SEM): 2.49 ± 0.11 µM; IC50 (HCT-116; HCT-116, SRB, mean ± SEM): 1.17 ± 0.46 µM; IC50 (MDA-MB-231; MDA-MB-231, SRB, mean ± SEM): 15.35 ± 0.08 µM; IC50 (A549): 6.17 ± 0.38 µM; Selectivity index (A549; F180 versus A549): 2.16; Selectivity index (A549; HME1 versus A549): 4.3
COC(=O)c1cc(NC2=NC(=O)C(=Cc3ccc(N(C)C)cc3)S2)ccc1OC(C)=O [HH33, Methyl 2-acetoxy-5-[(5-(4-dimethylaminobenzylidene)-4 (H)-oxo-1,3-thiazol-2-yl)-amino]benzoate]	elevated	increased	16.3	38.5	4.89	11.4	0.81 ± 0.34 µM	0.17	0.4	3.91 ± 0.43 µM	10.3	24	3.8	9	1.03 ± 0.11 µM	13.48	31.9	no signs	0.99	2.3	late apoptotic/dead cells (Annexin V+/PI+) ([1]; four cell lines, with increasing concentration): increased; activity compared with doxorubicin (HeLa; HeLa cells): superior activity than doxorubicin; increase of palmitic acid (MCF7 cells): 20%; reduction of 1-Monopalmitin level (MCF7 cells; compared to control cells): 4.5 fold; level of 1-Monopalmitin (MCF7 cells; vs untreated cells): significant decreased; level of Adenosine (MCF7 cells; vs untreated cells): significant decreased; also recorded: significant reduction; level of Decanoic Acid (MCF7 cells; vs untreated cells): significant decreased; also recorded: reduction; potency compared with doxorubicin (HCT-116; HCT-116 cells): nearby equipotent; percentage of cancer cells arrested at the G2/M border [2]: up to 90%; IC50 (A549): 2.93 ± 0.83 µM; Selectivity index (A549; F180 versus A549): 1.3; Selectivity index (A549; HME1 versus A549): 3.2
